{"source": "ChEMBL document CHEMBL1130153", "about": "“Inhibition of melanoma cell binding to type IV collagen by analogs of cell adhesion regulator” (J Med Chem, 1997)", "key": {"[1]": {"test": "Inhibition of melanoma cell adhesion to type IV collagen; call rule not given here", "assay_type": "functional, Homo sapiens"}, "[2]": {"test": "Inhibition of melanoma cell adhesion to type IV collagen;NE=no effect", "assay_type": "functional, Homo sapiens"}}, "note": "Where a SMILES comes first, the peptide text is derived from it. [ ]: non-standard residue; d: D form. pY = N[C@@H](Cc1ccc(OP(=O)(O)O)cc1)C(=O)O", "data": [{"compound": "H-VEILY-OH", "values": [{"measurement": "IC50", "setting": "[1]", "value": 90, "unit": "µM"}]}, {"compound": "H-YLIEV-OH", "values": [{"measurement": "IC50", "setting": "[2]", "value": "Not Active"}]}, {"compound": "CC[C@H](C)[C@H](NC(=O)[C@H](CCC(=O)O)NC(=O)[C@@H](N)C(C)C)C(=O)N[C@@H](CC(C)C)C(=O)N[C@@H](Cc1ccc(OP(=O)(O)O)cc1)C(=O)O", "note": "(H-VEIL[pY]-OH)", "values": [{"measurement": "IC50", "setting": "[1]", "value": 10, "unit": "µM"}]}]}
